Experimental data reported in US20250339444A1, “Methods and Compositions for Treating Fatty Liver and Viral Infections” (The Board of Trustees of the Leland Stanford Junior …, priority 2022, published 2025).
pEC50: −log10 of the molar value.

Legend:
[1] = system: SARS-CoV-2; test: microbe, parasite or virus in culture; assay type: cell-based; settings: Severe acute respiratory syndrome coronavirus 2, read-out: EC50, SARS-CoV-2 genome replication
[2] = system: HepG2 cells; test: Steatosis in HepG2 cells cultured in fatty medium, Nile Red staining; assay type: cell-based
Protocol: Briefly, fatty medium was prepared by 1:1 mixture of oleic acid and palmitic acid (Sigma Aldrich) with 10% FFA-free bovine serum albumin (BSA) solution (Sigma Aldrich) in PBS. Essentially, 100 mM of oleic acid and palmitic acid was prepared in 99% methanol. Palmitic acid was prepared by shaking at 500 rpm 50° C. for 20 mins. 10 mM of oleic acid and palmitic acid was incubated with 10% BSA in PBS at 50° C. for 30 mins. A final concentration of 100 uM FFA mixture was made in the final cell culture medium. Cells were incubated in fatty medium for 4 days to induce fatty liver. Cells were then treated with A27 at various concentrations for 3 days in the presence of the fatty medium. To determine the degree of steatosis, cells were stained with 1 mg/ml Nile Red solution (Sigma Aldrich) in cell culture medium for 15 mins at 37° C. and florescence signal was measured (see FIG. 1).

[3] = system: hepatic steatosis in C57/BL6 mice on high fat diet; test: Hepatic steatosis in C57/BL6 mice on high fat diet, liver ultrasound; assay type: in vivo; settings: 100 mg/kg/day
[4] = system: U87-MG cells
[5] = system: Venezuelan equine encephalitis virus (VEEV) TC83 strain; test: microbe, parasite or virus in culture; assay type: cell-based; settings: U-87 MG, read-out: EC50, VEEV genome replication
[6] = system: HBV; test: Reduction of HBV surface antigen in cells infected with HBV; assay type: cell-based; settings: Hepatitis B virus; cells infected with HBV (FIG. 4: engineered human liver tissue)
Protocol: We then discovered that A27 had antiviral activity against HBV, showing reduction in HBV surface antigen in cells infected with HBV with an EC50 of ˜1 μM (FIG. 4).

[7] = system: TMPRSS2-ACE2-Huh7.5 cells; test: Toxicity in the SARS-CoV-2 cell culture assay; settings: SARS-CoV-2 assay
[8] = system: SARS-CoV-2; test: Combination of A27 with other antivirals against SARS-CoV-2; assay type: cell-based
Description: Thus, A27 can be combined with nirmatrelvir or paxlovid.

[9] = system: PR8 virus (ATCC-VR-1469); test: Influenza PR8 plaque assay in MDCK cells; assay type: cell-based
[10] = system: RSV-luc5 virus; test: RSV-luc5 luciferase replication assay in HeLa cells; settings: human respiratory syncytial virus, 72 h, read-out: EC50, RSV replication
[11] = molecular target: apolipoprotein B (apoB) (Homo sapiens, UniProt P04114); test: Binding to apolipoprotein B
apolipoprotein B (apoB), sequence (P04114 28-4563, species assumed): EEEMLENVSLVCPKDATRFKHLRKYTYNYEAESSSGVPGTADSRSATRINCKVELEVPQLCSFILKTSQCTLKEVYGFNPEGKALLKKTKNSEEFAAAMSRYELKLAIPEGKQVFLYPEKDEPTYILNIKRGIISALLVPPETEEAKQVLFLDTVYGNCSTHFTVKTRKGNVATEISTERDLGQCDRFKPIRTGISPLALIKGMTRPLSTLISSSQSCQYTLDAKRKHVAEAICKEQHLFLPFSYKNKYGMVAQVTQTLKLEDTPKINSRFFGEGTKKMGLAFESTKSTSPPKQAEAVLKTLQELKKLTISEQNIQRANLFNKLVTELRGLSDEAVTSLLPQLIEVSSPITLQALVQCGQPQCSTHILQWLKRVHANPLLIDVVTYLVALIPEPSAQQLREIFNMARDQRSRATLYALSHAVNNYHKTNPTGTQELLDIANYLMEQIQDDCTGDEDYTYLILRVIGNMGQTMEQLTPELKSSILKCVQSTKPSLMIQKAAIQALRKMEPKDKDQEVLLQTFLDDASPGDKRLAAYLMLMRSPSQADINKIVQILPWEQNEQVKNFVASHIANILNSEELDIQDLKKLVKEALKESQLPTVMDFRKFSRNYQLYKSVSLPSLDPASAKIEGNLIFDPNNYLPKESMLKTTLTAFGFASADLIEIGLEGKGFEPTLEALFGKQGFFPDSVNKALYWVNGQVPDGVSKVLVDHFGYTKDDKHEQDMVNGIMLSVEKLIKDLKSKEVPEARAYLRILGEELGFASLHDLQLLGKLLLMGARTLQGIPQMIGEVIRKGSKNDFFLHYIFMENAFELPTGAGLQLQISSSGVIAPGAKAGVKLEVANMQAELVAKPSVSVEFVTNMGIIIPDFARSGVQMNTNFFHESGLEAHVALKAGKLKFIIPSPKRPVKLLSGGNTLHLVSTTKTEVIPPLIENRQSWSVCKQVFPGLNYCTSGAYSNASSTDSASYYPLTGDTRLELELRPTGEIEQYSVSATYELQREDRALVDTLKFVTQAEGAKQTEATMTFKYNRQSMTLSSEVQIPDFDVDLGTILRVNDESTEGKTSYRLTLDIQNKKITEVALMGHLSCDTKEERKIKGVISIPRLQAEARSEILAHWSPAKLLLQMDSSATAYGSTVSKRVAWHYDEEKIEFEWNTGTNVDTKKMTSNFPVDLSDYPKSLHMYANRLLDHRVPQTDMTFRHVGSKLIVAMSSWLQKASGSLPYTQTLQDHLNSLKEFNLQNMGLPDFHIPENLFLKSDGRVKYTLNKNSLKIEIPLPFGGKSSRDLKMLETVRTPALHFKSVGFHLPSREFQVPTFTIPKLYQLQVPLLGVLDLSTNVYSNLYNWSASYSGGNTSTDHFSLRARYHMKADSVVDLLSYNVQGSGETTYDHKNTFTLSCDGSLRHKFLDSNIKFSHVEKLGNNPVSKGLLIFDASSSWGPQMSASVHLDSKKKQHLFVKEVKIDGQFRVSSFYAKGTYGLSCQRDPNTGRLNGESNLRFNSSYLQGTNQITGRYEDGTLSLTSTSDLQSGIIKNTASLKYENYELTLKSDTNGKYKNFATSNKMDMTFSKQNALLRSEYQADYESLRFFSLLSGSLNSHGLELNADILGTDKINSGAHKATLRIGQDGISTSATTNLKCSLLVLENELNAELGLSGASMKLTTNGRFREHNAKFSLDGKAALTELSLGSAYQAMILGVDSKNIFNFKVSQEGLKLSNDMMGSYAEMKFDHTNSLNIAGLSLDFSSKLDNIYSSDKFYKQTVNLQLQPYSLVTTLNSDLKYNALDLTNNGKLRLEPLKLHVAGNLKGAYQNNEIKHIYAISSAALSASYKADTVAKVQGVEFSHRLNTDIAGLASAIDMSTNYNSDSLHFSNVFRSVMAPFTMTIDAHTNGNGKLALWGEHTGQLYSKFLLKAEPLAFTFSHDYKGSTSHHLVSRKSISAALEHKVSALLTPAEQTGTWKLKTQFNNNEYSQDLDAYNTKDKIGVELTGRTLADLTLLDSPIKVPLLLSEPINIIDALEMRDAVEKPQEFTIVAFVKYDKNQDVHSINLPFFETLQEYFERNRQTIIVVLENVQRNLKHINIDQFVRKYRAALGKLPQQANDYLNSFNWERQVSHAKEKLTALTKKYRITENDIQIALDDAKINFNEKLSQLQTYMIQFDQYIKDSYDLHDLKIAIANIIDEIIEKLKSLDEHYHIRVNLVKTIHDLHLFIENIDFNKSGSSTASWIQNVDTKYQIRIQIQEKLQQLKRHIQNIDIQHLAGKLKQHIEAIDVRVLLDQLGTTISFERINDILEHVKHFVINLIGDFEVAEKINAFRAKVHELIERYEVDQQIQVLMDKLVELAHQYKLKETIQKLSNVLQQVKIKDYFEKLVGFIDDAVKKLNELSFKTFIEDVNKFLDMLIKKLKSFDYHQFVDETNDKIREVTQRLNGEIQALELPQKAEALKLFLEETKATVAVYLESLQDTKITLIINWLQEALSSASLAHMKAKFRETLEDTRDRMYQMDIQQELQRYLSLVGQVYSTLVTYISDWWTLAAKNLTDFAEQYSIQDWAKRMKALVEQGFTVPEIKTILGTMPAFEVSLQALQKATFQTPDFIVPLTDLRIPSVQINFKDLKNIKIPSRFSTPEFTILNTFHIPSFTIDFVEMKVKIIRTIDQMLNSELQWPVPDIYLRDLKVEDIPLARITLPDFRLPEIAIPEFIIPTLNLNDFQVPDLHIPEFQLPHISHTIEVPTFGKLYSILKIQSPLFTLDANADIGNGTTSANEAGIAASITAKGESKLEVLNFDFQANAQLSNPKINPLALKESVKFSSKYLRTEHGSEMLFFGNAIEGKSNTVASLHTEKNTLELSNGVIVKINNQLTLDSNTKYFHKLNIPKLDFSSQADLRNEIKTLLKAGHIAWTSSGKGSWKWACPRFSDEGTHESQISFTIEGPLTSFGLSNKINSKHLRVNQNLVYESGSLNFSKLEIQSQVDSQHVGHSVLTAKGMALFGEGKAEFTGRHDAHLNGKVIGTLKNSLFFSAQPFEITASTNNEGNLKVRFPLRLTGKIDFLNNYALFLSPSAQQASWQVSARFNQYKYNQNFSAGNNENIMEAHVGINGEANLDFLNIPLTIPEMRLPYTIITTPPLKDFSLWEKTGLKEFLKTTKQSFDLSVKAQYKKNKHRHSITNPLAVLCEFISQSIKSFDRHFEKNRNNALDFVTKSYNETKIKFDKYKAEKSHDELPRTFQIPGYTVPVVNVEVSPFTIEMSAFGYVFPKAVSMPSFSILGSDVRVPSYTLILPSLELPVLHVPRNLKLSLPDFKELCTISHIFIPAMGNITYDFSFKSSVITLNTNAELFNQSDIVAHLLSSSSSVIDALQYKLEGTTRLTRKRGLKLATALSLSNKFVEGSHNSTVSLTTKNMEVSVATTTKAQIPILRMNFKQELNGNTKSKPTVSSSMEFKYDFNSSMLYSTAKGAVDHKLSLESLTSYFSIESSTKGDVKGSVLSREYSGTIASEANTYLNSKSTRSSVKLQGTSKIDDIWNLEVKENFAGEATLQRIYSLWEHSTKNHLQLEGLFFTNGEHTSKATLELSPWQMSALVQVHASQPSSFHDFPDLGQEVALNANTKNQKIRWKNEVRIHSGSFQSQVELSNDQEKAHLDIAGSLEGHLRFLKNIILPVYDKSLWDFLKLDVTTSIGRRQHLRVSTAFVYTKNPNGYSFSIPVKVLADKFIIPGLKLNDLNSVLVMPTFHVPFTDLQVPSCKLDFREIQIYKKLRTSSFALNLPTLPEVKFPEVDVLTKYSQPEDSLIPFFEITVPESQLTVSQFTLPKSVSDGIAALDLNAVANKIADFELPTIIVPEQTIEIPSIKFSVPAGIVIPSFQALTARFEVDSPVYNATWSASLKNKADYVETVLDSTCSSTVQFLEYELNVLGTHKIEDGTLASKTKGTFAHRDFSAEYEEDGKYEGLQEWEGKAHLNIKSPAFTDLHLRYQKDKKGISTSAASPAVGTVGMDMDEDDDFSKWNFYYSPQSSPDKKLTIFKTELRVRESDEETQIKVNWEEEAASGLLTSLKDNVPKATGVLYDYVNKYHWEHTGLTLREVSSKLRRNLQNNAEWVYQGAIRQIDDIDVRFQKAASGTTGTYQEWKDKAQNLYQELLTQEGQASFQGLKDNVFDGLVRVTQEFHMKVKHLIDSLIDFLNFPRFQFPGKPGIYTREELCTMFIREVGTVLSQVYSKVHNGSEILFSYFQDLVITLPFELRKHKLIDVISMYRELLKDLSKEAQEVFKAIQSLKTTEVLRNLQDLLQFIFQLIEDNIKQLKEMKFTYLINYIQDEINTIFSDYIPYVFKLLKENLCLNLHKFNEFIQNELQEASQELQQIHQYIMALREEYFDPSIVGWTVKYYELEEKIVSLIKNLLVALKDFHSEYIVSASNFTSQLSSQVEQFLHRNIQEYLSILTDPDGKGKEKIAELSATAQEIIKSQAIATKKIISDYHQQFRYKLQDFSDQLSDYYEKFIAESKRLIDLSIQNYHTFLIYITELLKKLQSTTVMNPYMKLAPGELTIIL

With `Cn1nc(C(=O)NC2CCN(CCN3CCCC3)CC2)c2ccc(N3CCCCCC3)nc21` [Compound A27] the pEC50 [1] was 6.10, the “lipid accumulation (Nile Red fluorescence)” value ([2]; HepG2 cells, A27 at various concentrations for 3 days in fatty medium) was “dose-dependent decrease in lipid accumulation” and the pEC50 ([2]; Homo sapiens, HepG2, 72 h, read-out: half effective concentration (EC50), inhibition of formation of steatosis) was about 6.30. The tolerability in mice ([3]; 4 weeks) was “tolerated A27 well”, the “hepatic steatosis measured by liver ultrasound” value ([3]; high fat diet for 4 weeks, versus vehicle) was “reduces hepatic steatosis” and the toxicity [4] was “without any evidence of toxicity”. The pEC50 [5] was 5.10, the pEC50 [6] was about 6.00 and the toxicity [7] was “without any evidence of toxicity”. The “combination effect with polymerase inhibitor nucleoside analog” value ([8]; with a polymerase inhibitor nucleoside analog (e.g. EIDD2801)) was “additive”, the “combination effect with protease inhibitors” value ([8]; with protease inhibitors against SARS-CoV-2 (e.g. PF-07321332)) was “synergistic” and the “plaque size compared to oseltamivir treated wells” value [9] was “smaller-sized plaques”. The pEC50 [10] was 5.96 and the “binding to apolipoprotein B (apoB)” value [11] was “can bind”.
